In brackets after ≈: the same amount, converted by molar mass.
Columns and labels:
physchem = conditions: SGF buffer
in vitro = conditions: human, liver microsomes

For `COc1cccc(F)c1-c1nccc(C(=O)Nc2cc(F)c3c(cnn3C)c2N2C[C@@H](N)C[C@H]2CO)n1`, the solubility (physchem) was 350 µg/mL (≈ 687 µM) and the CLint scaled at 0.5 h (in vitro) was > 18.3 mL/min/kg.
